Reference: patent US11046680B1, “Heteroaryl-substituted triazoles as APJ receptor agonists” (priority 2016, dated 2021)
pEC50: −log10 of the molar value.

Target: human APJ receptor (Homo sapiens (Human), UniProt P35414)
Experiment: biochemical
Format: biochemical
Settings: [35S]GTPγS binding, CHO membranes expressing human APJ receptor; read-out: Activity hAPJ SPA EC50 IP
Outline: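 GTPγS binding on membranes from CHO cells stably expressing FLAG-tagged human APJ, with optimized GDP, MgCl2 and NaCl; incubated 90 min at RT before imaging read-out.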

Chain of human APJ receptor (P35414 whole entry): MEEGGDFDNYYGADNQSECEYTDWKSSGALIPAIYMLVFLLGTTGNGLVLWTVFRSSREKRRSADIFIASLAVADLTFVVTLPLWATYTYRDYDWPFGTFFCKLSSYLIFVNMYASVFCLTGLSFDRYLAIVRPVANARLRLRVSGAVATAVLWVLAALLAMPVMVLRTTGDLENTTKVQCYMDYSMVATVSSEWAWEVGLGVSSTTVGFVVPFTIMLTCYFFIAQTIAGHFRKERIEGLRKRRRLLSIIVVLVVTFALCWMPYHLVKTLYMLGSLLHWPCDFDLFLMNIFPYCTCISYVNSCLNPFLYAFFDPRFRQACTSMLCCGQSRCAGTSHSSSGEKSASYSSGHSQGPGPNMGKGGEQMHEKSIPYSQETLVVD

| Molecule | pEC50 |
| --- | --- |
| CC(C)O[C@@H](c1ncc(Cl)cn1)[C@H](C)S(=O)(=O)Nc1nnc(-c2cnn(C)c2)n1C1CC1 [Example 536.0, (1S,2S)-1-(5-chloro-2-pyrimidinyl)-N-(4-cyclopropyl-5-(1-methyl-1H-pyrazol-4-yl)-4H-1,2,4-triazol-3-yl)-1-(2-propanyloxy)-2-propanesulfonamide] | 7.15 |
| CCn1ccc(-c2nnc(NS(=O)(=O)[C@@H](C)[C@@](O)(c3ncc(C)cn3)C(F)(F)F)n2-c2c(OC)cccc2OC)n1 [Example 390.0, (2S,3R)-N-(4-(2,6-Dimethoxyphenyl)-5-(1-ethyl-1H-pyrazol-3-yl)-4H-1,2,4-triazol-3-yl)-4,4,4-trifluoro-3-hydroxy-3-(5-methylpyrimidin-2-yl)butane-2-sulfonamide and (2S,3S)-N-(4-(2,6-dimethoxyphenyl)-5-(1-ethyl-H-pyrazol-3-yl)-4H-1,2,4-triazol-3-yl)-4,4,4-trifluoro-3-hydroxy-3-(5-methylpyrimidin-2-yl)butane-2-sulfonamide] | 7.14 |
| COc1ccc(Br)cc1-n1c(NS(=O)(=O)CCc2ccc(Cl)cc2)nnc1-c1cccs1 [Example 133.0, N-(4-(5-Bromo-2-methoxyphenyl)-5-(thiophen-2-yl)-4H-1,2,4-triazol-3-yl)-2-(4-chlorophenyl)ethanesulfonamide] | 6.44 |
| COc1cccc(OC)c1-n1c(NS(=O)(=O)CCc2ncc(F)cn2)nnc1-c1nc(C)cs1 [Example 94.0, N-(4-(2,6-dimethoxyphenyl)-5-(4-methylthiazol-2-yl)-4H-1,2,4-triazol-3-yl)-2-(5-fluoropyrimidin-2-yl)ethanesulfonamide] | 8.57 |
| CCn1ccc(-c2nnc(NS(=O)(=O)[C@@H](C)[C@H](OC)c3ncc(Cl)cn3)n2-c2c(OC)cccc2OC)n1 [Example 393.0, (1R,2S)-1-(5-chloropyrimidin-2-yl)-N-(4-(2,6-dimethoxyphenyl)-5-(1-ethyl-1H-pyrazol-3-yl)-4H-1,2,4-triazol-3-yl)-1-methoxypropane-2-sulfonamide] | 9.33 |
| CC(C)O[C@@H](c1ncc(Cl)cn1)[C@H](C)S(=O)(=O)Nc1nnc(-c2ccn(C)n2)n1C1CC1 [Example 532.0, (1S,2S)-1-(5-chloro-2-pyrimidinyl)-N-(4-cyclopropyl-5-(1-methyl-1H-pyrazol-3-yl)-4H-1,2,4-triazol-3-yl)-1-(2-propanyloxy)-2-propanesulfonamide] | 7.66 |
| COc1ccc([C@@H](C)[C@H](C)S(=O)(=O)Nc2nnc(-c3ccn(C)n3)n2-c2c(OC)ncnc2OC)nc1 [Example 458.0, (2S,3R)-N-(4-(4,6-dimethoxy-5-pyrimidinyl)-5-(1-methyl-1H-pyrazol-3-yl)-4H-1,2,4-triazol-3-yl)-3-(5-methoxy-2-pyridinyl)-2-butanesulfonamide] | 8.55 |
| CO[C@H](c1ncc(Cl)cn1)[C@H](C)S(=O)(=O)Nc1nnc(-c2nn(C)c3c2CCCC3)n1C(C)C [Example 512.0, (1R,2S)-1-(5-chloropyrimidin-2-yl)-N-(4-isopropyl-5-(1-methyl-4,5,6,7-tetrahydro-1H-indazol-3-yl)-4H-1,2,4-triazol-3-yl)-1-methoxypropane-2-sulfonamide] | 6.89 |
| COCC1(n2c(NS(=O)(=O)[C@@H](C)[C@H](OC)c3ncc(Cl)cn3)nnc2-c2n[nH]c3ccccc23)CC1 [Example 495.0, (1R,2S)-1-(5-chloro-2-pyrimidinyl)-N-(5-(1H-indazol-3-yl)-4-(1-(methoxymethyl)cyclopropyl)-4H-1,2,4-triazol-3-yl)-1-methoxy-2-propanesulfonamide] | 7.89 |
| CNC(=O)n1ccc(-c2nnc(NS(=O)(=O)[C@@H](C)Cc3ncc(F)cn3)n2-c2c(OC)cccc2OC)n1 (single isomer, unassigned) [Example 74.0] | 7.66 |
| COCC1(n2c(NS(=O)(=O)[C@@H](C)[C@H](C)c3cnc(OC)cn3)nnc2-c2ccn(C)n2)CC1 [Example 454.0, (2S,3R)-N-(4-(1-(methoxymethyl)cyclopropyl)-5-(1-methyl-1H-pyrazol-3-yl)-4H-1,2,4-triazol-3-yl)-3-(5-methoxy-2-pyrazinyl)-2-butanesulfonamide] | 7.25 |
| COc1cccc(OC)c1-n1c(NS(=O)(=O)[C@H](C)[C@@H](OC)c2ccc(C#N)cc2C#N)nnc1-c1ccn(C)n1 (single isomer, unassigned) [Example 265.0, (1S,2R)-1-(2,4-dicyanophenyl)-N-(4-(2,6-dimethoxyphenyl)-5-(1-methyl-1H-pyrazol-3-yl)-4H-1,2,4-triazol-3-yl)-1-methoxy-2-propanesulfonamide or (1R,2S)-1-(2,4-dicyanophenyl)-N-(4-(2,6-dimethoxyphenyl)-5-(1-methyl-1H-pyrazol-3-yl)-4H-1,2,4-triazol-3-yl)-1-methoxy-2-propanesulfonamide] | 7.15 |
| (R)-N-(4-(2,6-dimethoxyphenyl)-5-(pyrimidin-5-yl)-4H-1,2,4-triazol-3-yl)-1-(5-fluoropyrimidin-2-yl)propane-2-sulfonamide and (S)-N-(4-(2,6-dimethoxyphenyl)-5-(pyrimidin-5-yl)-4H-1,2,4-triazol-3-yl)-1-(5-fluoropyrimidin-2-yl)propane-2-sulfonamide [Example 48.0] | 6.82 |
| COc1cccc(OC)c1-n1c(NS(=O)(=O)[C@H](C)[C@@H](C)c2ncc(Cl)cn2)nnc1-c1ccn(C)n1 [Example 443.0, (2R,3S)-3-(5-chloropyrimidin-2-yl)-N-(4-(2,6-dimethoxyphenyl)-5-(1-methyl-1H-pyrazol-3-yl)-4H-1,2,4-triazol-3-yl)butane-2-sulfonamide] | 8.19 |
| COCC1(n2c(NS(=O)(=O)[C@@H](C)[C@H](OC)c3ncc(Cl)cn3)nnc2-c2n[nH]c3c2CCC3)CCC1 [Example 489.0] | 8.89 |
| COc1cccc(OC)c1-n1c(NS(=O)(=O)CCc2ccc(Cl)cc2)nnc1-c1cocn1 [Example 139.0, 2-(4-chlorophenyl)-N-(4-(2,6-dimethoxyphenyl)-5-(oxazol-4-yl)-4H-1,2,4-triazol-3-yl)ethanesulfonamide] | 6.93 |
| COc1cccc(OC)c1-n1c(NS(=O)(=O)[C@H]2CCCNC2)nnc1-c1ccn(C)n1 (mixture of isomers) [Example 263.0, (3R)-N-(4-(2,6-dimethoxyphenyl)-5-(1-methyl-1H-pyrazol-3-yl)-4H-1,2,4-triazol-3-yl)-3-piperidinesulfonamide and (3S)-N-(4-(2,6-dimethoxyphenyl)-5-(1-methyl-1H-pyrazol-3-yl)-4H-1,2,4-triazol-3-yl)-3-piperidinesulfonamide] | 6.74 |
| CCc1csc(-c2nnc(NS(=O)(=O)CCc3ccc(F)cc3C#N)n2-c2c(OC)cccc2OC)n1 [Example 153.0, 2-(2-cyano-4-fluorophenyl)-N-(4-(2,6-dimethoxyphenyl)-5-(4-ethylthiazol-2-yl)-4H-1,2,4-triazol-3-yl)ethanesulfonamide] | 7.96 |
| COc1cccc(OC)c1-n1c(NS(=O)(=O)[C@@H](C)[C@H](OC)c2ncc(Cl)cn2)nnc1-c1cnn2c1CCC2 [Example 488.0, (1R,2S)-1-(5-chloropyrimidin-2-yl)-N-(5-(5,6-dihydro-4H-pyrrolo[1,2-b]pyrazol-3-yl)-4-(2,6-dimethoxyphenyl)-4H-1,2,4-triazol-3-yl)-1-methoxypropane-2-sulfonamide] | 9.70 |
| COc1cnc([C@H](C)[C@H](C)S(=O)(=O)Nc2nnc(-c3ccn(C)n3)n2-c2c(OC)ncnc2OC)nc1 [Example 297.0] | 9.85 |
